Source: ChEMBL document CHEMBL5154925, “Design and Optimization of Thienopyrimidine Derivatives as Potent and Selective PI3Kδ Inhibitors for the Treatment of B-Cell Malignancies” (J Med Chem, 2022)
Converted amounts (≈) assume the structure as drawn.

Tests used:
[1] = molecular target: Serine/threonine-protein kinase mTOR (Homo sapiens, UniProt P42345); test: Inhibition of mTOR (unknown origin)
Z-138 = test: Antiproliferative activity against human Z138 cells assessed as cell growth inhibition incubated for 96 hrs by cell titer glo assay; format: functional, cell-based; details: Z-138, 96 h
SU-DHL-6 = test: Antiproliferative activity against human SU-DHL-6 cells assessed as cell growth inhibition incubated for 96 hrs by cell titer glo assay; format: functional, cell-based; details: SU-DHL-6, 96 h
[2] = Solubility of the compound in PBS; format: physicochemical
Rec1 = test: Antiproliferative activity against human REC1 cells assessed as cell growth inhibition incubated for 96 hrs by cell titer glo assay; format: functional, cell-based; details: Rec1, 96 h
Pfeiffer [3] = test: Induction of apoptosis in human Pfeiffer cells assessed as early apoptotic cells at 2 uM incubated for 48 hrs by annexin V-FITC staining based flow cytometry (reference value: 4.16 %); format: functional
Pfeiffer [4] = test: Induction of apoptosis in human Pfeiffer cells assessed as late apoptotic cells at 10 uM incubated for 48 hrs by annexin V-FITC staining based flow cytometry (reference value: 7.87 %); format: functional
[5] = molecular target: Phosphatidylinositol 4,5-bisphosphate 3-kinase catalytic subunit alpha isoform (Homo sapiens, UniProt P42336); test: Inhibition of PI3Kalpha (unknown origin) using PIP2 as substrate measured after 1 hr in presence of ATP by ADP-glo luminescence assay
[6] = Toxicity in nude mouse xenografted with human Pfeiffer cells assessed as effect on body weight at 30 mg/kg, po BID for 21 days and measured twice weekly; format: organism-based; details: in vivo, 504 h, time 21 day
Pfeiffer [7] = test: Induction of apoptosis in human Pfeiffer cells assessed as viable […] cells at 10 uM incubated for 48 hrs by annexin V-FITC staining based flow cytometry (reference value: 81.14 %); format: functional
JeKo-1 = test: Antiproliferative activity against human JeKo-1 cells assessed as cell growth inhibition incubated for 96 hrs by cell titer glo assay; format: functional, cell-based; details: JeKo-1, 96 h
DOHH-2 = test: Antiproliferative activity against human DOHH-2 cells assessed as cell growth inhibition incubated for 96 hrs by cell titer glo assay; format: functional, cell-based; details: DOHH-2, 96 h
[8] = molecular target: Phosphatidylinositol 4,5-bisphosphate 3-kinase catalytic subunit gamma isoform (Mus musculus, UniProt Q9JHG7); test: Inhibition of PI3Kgamma in C5a stimulated mouse RAW264.7 cells incubated for 10 mins by AlphaLisa assay; format: cell-based
[9] = molecular target: T1, Phosphatidylinositol 4,5-bisphosphate 3-kinase catalytic subunit beta isoform (Homo sapiens, UniProt P42338); test: Inhibition of PI3Kbeta (unknown origin) using PIP2 as substrate measured after 1 hr in presence of ATP by ADP-glo luminescence assay
[10] = molecular target: Phosphatidylinositol 4,5-bisphosphate 3-kinase catalytic subunit alpha isoform (Mus musculus, UniProt P42337); test: Inhibition of PI3Kalpha in IGF-1 stimulated mouse C2C12 cells incubated for 10 mins by AlphaLISA assay; format: cell-based
Pfeiffer [11] = test: Antitumor activity against human Pfeiffer cells xenografted in nude mouse assessed as tumor growth inhibition at 30 mg/kg, po BID for 21 days and measured twice weekly; format: functional; details: 504 h, time 21 day, read-out: TGI
Pfeiffer [12] = test: Induction of apoptosis in human Pfeiffer cells assessed as early apoptotic cells at 10 uM incubated for 48 hrs by annexin V-FITC staining based flow cytometry (reference value: 4.16 %); format: functional
Pfeiffer [13] = test: Induction of apoptosis in human Pfeiffer cells assessed as necrotic cells at 10 uM incubated for 48 hrs by annexin V-FITC staining based flow cytometry (reference value: 6.62 %); format: functional
[14] = Microsomal stability in mouse liver microsomes assessed as half life; format: ADME, Microsome
[15] = Microsomal stability in mouse liver microsomes assessed as intrinsic clearance; format: ADME, Microsome; details: read-out: CLH
[16] = Plasma protein binding in mouse; format: ADME, cell-free; details: read-out: PPB (converted)
[17] = molecular target: Phosphatidylinositol 4,5-bisphosphate 3-kinase catalytic subunit gamma isoform (Homo sapiens, UniProt P48736); test: Inhibition of PI3Kgamma (unknown origin) using PIP2 as substrate measured after 1 hr in presence of ATP by ADP-glo luminescence assay
Pfeiffer [18] = test: Induction of apoptosis in human Pfeiffer cells assessed as late apoptotic cells at 2 uM incubated for 48 hrs by annexin V-FITC staining based flow cytometry (reference value: 7.87 %); format: functional
[19] = molecular target: T1, Phosphatidylinositol 4,5-bisphosphate 3-kinase catalytic subunit beta isoform; test: Inhibition of PI3Kbeta in LPA stimulated human PC-3 cells incubated for 10 mins by AlphaLISA assay; format: cell-based
Pfeiffer [20] = test: Induction of apoptosis in human Pfeiffer cells assessed as viable […] cells at 2 uM incubated for 48 hrs by annexin V-FITC staining based flow cytometry (reference value: 81.14 %); format: functional
SUD4 = test: Antiproliferative activity against human SU-DHL-4 cells assessed as cell growth inhibition incubated for 96 hrs by cell titer glo assay; format: functional, cell-based; details: SU-DHL-4, 96 h
Pfeiffer [21] = test: Antiproliferative activity against human Pfeiffer cells assessed as cell growth inhibition incubated for 96 hrs by cell titer glo assay; format: functional, cell-based
[22] = Solubility of the compound in FaSSIF; format: physicochemical
Pfeiffer [23] = test: Induction of apoptosis in human Pfeiffer cells assessed as necrotic cells at 2 uM incubated for 48 hrs by annexin V-FITC staining based flow cytometry (reference value: 6.62 %); format: functional

T1 sequence (P42338 whole entry, canonical isoform): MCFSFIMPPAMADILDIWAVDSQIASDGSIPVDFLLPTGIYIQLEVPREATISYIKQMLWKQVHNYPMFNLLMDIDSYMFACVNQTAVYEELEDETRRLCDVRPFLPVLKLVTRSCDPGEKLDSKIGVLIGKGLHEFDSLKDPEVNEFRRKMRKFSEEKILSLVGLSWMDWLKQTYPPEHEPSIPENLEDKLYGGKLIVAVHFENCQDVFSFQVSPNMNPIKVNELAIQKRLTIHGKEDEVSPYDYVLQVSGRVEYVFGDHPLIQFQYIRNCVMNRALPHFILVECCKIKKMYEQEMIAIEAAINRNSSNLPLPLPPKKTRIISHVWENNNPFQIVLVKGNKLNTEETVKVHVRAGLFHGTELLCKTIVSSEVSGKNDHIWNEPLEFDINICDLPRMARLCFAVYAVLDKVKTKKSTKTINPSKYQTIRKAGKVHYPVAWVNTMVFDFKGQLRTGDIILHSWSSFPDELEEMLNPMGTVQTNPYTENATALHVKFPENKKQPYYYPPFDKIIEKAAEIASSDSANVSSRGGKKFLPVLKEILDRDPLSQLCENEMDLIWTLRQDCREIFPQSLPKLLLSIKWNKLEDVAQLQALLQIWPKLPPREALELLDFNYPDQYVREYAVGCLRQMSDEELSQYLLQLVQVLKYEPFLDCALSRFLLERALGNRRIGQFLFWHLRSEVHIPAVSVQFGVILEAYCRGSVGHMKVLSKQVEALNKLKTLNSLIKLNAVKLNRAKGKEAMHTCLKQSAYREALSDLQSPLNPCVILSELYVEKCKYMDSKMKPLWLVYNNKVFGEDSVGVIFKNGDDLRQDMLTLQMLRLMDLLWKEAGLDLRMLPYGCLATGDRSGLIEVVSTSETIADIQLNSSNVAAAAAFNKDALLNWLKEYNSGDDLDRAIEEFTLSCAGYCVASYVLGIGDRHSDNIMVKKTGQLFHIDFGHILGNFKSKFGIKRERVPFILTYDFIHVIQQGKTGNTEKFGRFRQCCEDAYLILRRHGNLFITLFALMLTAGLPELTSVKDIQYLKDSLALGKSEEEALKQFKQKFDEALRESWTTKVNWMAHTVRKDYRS
Phosphatidylinositol 4,5-bisphosphate 3-kinase catalytic subunit gamma isoform (Homo sapiens, UniProt P48736), sequence (P48736 whole entry, canonical isoform): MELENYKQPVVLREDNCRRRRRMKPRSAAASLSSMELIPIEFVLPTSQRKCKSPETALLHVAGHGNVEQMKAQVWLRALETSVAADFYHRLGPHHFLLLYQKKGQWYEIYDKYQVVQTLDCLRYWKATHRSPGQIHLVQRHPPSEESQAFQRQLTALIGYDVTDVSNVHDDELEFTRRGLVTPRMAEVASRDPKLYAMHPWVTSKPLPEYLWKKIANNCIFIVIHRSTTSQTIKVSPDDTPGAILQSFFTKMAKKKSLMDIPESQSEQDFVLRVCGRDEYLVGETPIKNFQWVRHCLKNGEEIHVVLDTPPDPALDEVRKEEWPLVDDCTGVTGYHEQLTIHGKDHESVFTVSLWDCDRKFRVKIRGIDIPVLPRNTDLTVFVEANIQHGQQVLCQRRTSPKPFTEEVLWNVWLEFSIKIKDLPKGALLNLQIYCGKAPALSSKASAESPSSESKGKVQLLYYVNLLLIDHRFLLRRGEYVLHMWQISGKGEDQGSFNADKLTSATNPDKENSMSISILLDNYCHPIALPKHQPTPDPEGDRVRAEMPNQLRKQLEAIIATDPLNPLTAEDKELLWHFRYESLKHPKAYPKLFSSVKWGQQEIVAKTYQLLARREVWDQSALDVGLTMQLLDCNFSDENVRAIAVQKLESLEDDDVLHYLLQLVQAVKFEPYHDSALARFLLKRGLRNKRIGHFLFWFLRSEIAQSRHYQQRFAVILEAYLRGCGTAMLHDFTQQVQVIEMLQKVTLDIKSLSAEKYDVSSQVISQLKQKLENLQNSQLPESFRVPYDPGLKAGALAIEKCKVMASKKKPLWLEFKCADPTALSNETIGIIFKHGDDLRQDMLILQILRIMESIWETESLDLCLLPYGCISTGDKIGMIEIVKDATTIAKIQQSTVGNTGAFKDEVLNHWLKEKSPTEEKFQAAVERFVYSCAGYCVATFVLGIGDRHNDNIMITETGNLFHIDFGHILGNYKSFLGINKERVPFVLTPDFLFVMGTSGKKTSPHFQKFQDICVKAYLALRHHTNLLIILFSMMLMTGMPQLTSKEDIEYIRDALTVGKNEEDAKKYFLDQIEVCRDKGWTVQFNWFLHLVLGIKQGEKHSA
Phosphatidylinositol 4,5-bisphosphate 3-kinase catalytic subunit alpha isoform (Mus musculus, UniProt P42337), sequence (P42337 whole entry, canonical isoform): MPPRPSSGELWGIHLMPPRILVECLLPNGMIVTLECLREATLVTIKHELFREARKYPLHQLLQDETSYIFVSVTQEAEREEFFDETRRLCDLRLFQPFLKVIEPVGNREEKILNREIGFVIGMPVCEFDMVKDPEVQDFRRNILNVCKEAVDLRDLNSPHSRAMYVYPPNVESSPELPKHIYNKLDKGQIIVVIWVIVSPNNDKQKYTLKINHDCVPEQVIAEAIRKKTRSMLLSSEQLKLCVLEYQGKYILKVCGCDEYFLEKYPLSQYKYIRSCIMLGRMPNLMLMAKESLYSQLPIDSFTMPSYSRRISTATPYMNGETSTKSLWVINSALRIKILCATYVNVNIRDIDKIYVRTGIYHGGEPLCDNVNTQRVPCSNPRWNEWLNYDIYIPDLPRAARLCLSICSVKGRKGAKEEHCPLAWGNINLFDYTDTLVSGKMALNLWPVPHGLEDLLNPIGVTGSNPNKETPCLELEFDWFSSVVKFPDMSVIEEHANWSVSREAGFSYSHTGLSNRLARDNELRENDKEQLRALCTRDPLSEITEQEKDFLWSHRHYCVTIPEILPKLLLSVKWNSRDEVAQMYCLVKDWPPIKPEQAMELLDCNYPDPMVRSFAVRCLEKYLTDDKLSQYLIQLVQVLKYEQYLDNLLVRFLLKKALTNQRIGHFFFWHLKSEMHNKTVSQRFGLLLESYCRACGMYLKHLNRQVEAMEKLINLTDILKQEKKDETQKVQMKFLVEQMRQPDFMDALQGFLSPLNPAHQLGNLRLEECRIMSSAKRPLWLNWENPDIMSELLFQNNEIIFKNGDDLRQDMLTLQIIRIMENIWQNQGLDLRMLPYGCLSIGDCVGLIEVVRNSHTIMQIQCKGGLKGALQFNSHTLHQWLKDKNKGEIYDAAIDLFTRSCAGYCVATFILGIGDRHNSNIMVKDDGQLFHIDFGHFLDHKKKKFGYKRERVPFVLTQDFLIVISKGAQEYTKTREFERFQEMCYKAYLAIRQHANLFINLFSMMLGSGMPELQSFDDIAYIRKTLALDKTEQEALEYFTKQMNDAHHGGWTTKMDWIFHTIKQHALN
Phosphatidylinositol 4,5-bisphosphate 3-kinase catalytic subunit alpha isoform (Homo sapiens, UniProt P42336), sequence (P42336 whole entry, canonical isoform): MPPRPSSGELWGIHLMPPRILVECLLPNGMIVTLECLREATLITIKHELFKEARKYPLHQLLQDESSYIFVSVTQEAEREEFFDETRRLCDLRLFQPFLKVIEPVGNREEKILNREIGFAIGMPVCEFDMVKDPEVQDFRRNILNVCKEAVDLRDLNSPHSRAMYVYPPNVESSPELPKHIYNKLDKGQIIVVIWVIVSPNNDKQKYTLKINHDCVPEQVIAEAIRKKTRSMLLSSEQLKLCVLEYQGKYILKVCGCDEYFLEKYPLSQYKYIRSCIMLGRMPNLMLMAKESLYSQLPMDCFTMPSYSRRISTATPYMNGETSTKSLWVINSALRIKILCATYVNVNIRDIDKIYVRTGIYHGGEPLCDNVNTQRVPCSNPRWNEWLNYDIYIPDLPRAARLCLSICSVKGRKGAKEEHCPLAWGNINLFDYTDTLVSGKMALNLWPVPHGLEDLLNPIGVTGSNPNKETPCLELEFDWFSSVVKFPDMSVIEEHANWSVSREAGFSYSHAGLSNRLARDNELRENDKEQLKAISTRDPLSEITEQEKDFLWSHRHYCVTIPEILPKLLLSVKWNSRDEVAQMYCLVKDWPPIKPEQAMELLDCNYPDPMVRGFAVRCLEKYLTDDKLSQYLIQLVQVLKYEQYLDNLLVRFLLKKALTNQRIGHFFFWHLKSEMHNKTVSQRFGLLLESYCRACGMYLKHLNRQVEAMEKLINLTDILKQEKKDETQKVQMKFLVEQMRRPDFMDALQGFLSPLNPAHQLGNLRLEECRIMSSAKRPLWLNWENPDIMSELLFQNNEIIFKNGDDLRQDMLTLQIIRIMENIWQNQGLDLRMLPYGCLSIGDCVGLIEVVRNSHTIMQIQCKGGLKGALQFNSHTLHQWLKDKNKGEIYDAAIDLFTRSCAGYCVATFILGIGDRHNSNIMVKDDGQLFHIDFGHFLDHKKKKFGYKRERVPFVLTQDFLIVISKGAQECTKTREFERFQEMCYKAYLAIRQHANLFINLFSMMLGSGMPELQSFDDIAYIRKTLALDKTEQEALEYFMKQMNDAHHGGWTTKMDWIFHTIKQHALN

What does the source list for `CCC(=O)N1CC[C@H](Nc2ncnc3c2CN(c2cnc(OC)c(C(F)(F)F)c2)CC3)C1` [LENIOLISIB]?
IC50 [1]: > 10 µM; IC50 (Z-138): 31.2 µM; IC50 (SU-DHL-6): 770 nM; solubility [2]: 57.9 µM (≈ 26.1 µg/mL); IC50 (Rec1): 1280 nM; Activity (Pfeiffer [3]): 5.7%; Activity (Pfeiffer [4]): 12.88%; IC50 [5]: 75.5 nM; Activity [6]: 10%; Activity (Pfeiffer [7]): 75.9%; IC50 (JeKo-1): 31.7 µM; IC50 (DOHH-2): 29.2 µM; IC50 [8]: 4.04 µM; IC50 [9]: 363 nM; IC50 [10]: 19.6 µM; inhibition in vivo at 30 mg/kg (Pfeiffer [11]): 53.8%; Activity (Pfeiffer [12]): 5.53%; Activity (Pfeiffer [13]): 5.69%; half-life [14]: 15.4 min; CLint scaled [15]: 355 mL/min/kg; fraction unbound [16]: 0.066; IC50 [17]: 902 nM; Activity (Pfeiffer [18]): 11.23%; IC50 [19]: 2680 nM; Activity (Pfeiffer [20]): 78.31%; IC50 (SUD4): 8.25 µM; IC50 (Pfeiffer [21]): 3.75 µM; solubility [22]: 77.6 µM (≈ 35 µg/mL); Activity (Pfeiffer [23]): 4.76%
